We go through one molecule from PMC11855866 (International Journal of Molecular Sciences, 2025).

Converted amounts (≈) assume the structure as drawn. Like-named read-outs stand apart in the source and are kept apart here.

The test system of one series is CT26 colon cancer model. On the set-up: method as in PMID 36033393. Conditions: GLIM 5 mg/kg every 2 days, i.p.; cited from earlier work.
In the next series the test system is U-87MG cells. The experiment in a line: MTT cytotoxicity / synergy assay, 72 h, U-87MG. The series is classed as cell-based. Conditions: Homo sapiens, n.d. = IC50 not achieved within concentrations tested, read-out: IC50 Value in Specific Cell Line, U-87MG.
Another series deals with HepG2 cells. Put plainly: MTT cytotoxicity / synergy assay, 72 h, HepG2. Conditions: Homo sapiens, HepG2, 72 h, read-out: IC50 Value in Specific Cell Line, HepG2, MTT, 72 h; n.d. = IC50 not achieved within concentrations tested.
In series [1] the test system is A549, HepG2, MCF-7, and U-87MG. The experiment in a line: Doxorubicin accumulation assay, sensitive cell lines. The series is classed as cell-based, human. The method, then: (§1) Cells were seeded at a density of 2 × 10^4 cells per well in black 96-well plates as described in Section 3.6.
In the next series the test system is MCF-7 cells. Conditions: cited from earlier work.
Another series relates to HMEC-1 cells. The experiment in a line: MTT cytotoxicity / synergy assay, 72 h, HMEC-1. Conditions: Homo sapiens, HMEC-1, 72 h, read-out: IC50 Value in Specific Cell Line, HMEC-1.
Series [2] concerns A549 cells. The experiment in a line: Doxorubicin accumulation assay, A549. It counts as cell-based, human. The conditions noted are these: 50 µM DOXO and 1.56 µM GLIM, 3 h. How it is done: as §1
The nature of series [3]: MTT cytotoxicity, range over the cell panel. It counts as cell-based. The conditions noted are these: human; range over the tested cell lines; read-out: cytotoxicity (IC50 range over cell lines), our study.
Experimental: HMEC-1, an immortalized human microvascular endothelial cell line, was used as a model for normal cells.
(§2) The cancer cell lines were cultured in Dulbecco’s Modified Eagle’s Medium (DMEM; Sigma-Aldrich) supplemented with 10% FBS and 1% penicillin/streptomycin mixture (10,000 U/mL penicillin and 10 mg/mL streptomycin; Sigma-Aldrich) at 37 °C in a humidified atmosphere with 5% CO2.
(§3) For the MTT assay, exponentially growing cells were seeded into 96-well plates at a density of 5 × 10³ cells per well. After 24 h of incubation, the medium was replaced with 100 µL of fresh medium containing the tested compounds. After 72 h of treatment, cell viability was assessed using the MTT assay as described earlier. […] IC50 values were calculated using GraphPad Prism 9 software (GraphPad Software).
On the set-up of series [4]: method as in Figure S2 [39–71]. The conditions noted are these: ref Figure S2 [39–71]; cited from earlier work.
For series [5], the system named is A549 cells. Put plainly: MTT cytotoxicity / synergy assay, 72 h, A549. The conditions noted are these: Homo sapiens, A549, 72 h, read-out: IC50 Value in Specific Cell Line, A549, MTT, 72 h; n.d. = IC50 not achieved within concentrations tested.
Experimental: (§4) The synergistic effects of drug combinations were studied in various cancer cell lines, including MCF-7 (human breast cancer), A549 (human lung cancer), U-87 MG (human malignant glioma), HepG2 (human liver cancer), and HUH7 (human liver cancer). HMEC-1, an immortalized human microvascular endothelial cell line, was used as a model for normal cells. All cell lines were purchased from ATCC (Rockville, MD, USA).
as §2, §3
For series [6] the following is noted: cited from earlier work.
The test system of the next series is MC38 melanoma model. Also on record: method as in PMID 36033393. The conditions noted are these: GLIM 5 mg/kg every 2 days, i.p.; cited from earlier work.
In a further series the test system is MC38 model. On the set-up: method as in PMID 36033393. Conditions: GLIM 5 mg/kg every 2 days, i.p.; cited from earlier work.
Another series deals with HuH7 cells. The experiment in a line: MTT cytotoxicity / synergy assay, 72 h, HuH7. The conditions noted are these: Homo sapiens, Huh-7, 72 h, read-out: IC50 Value in Specific Cell Line, HuH7.
Series [7] is described as follows: DLS particle size measurements. The series is classed as physicochemical. How it is done: Dynamic light scattering (DLS) measurements were performed using a Zetasizer Nano ZS instrument (Malvern Instruments, Malvern, UK). Samples of 2 mL were placed in disposable PMMA cuvettes (cat. #634-0677; VWR, Gdańsk, Poland) and measured at 37 °C. To ensure accuracy, each sample was measured at least three times. The data were processed using DTS v6.2 software (Malvern Instruments).

The next series has as its system 4T1 tumors. Put plainly: 4T1 breast cancer in BALB/c mice. It counts as in vivo. Conditions: GLIM alone 4 mg/kg i.p. The method, then: Six- to eight-week-old female BALB/c mice (Charles River Breeding Laboratories, Wilmington, MA, USA) were bred at the Maria Sklodowska-Curie National Research Institute of Oncology, Gliwice Branch (Gliwice, Poland), under a HEPA-filtered Allentown's IVC System (Allentown Caging Equipment Co., Allentown, NJ, USA). All efforts to minimize animal suffering were made by qualified personnel. This study was carried out in strict accordance with the recommendations in the Guide for the Care and Use of Laboratory Animals of the National Institutes of Health. The protocols were approved by the Committee on the Ethics of Animal Experiments of the Local Ethics Commission (Medical University of […], Poland; Permit No. 22/2024). BALB/c mice were injected subcutaneously in the lower flank with 2 × 10^5 4T1 cells suspended in 100 μL PBS. […] Each treatment was administered a total of five times.

A short description of series [8]: Hemolysis (Drabkin's method). It counts as cell-based. The conditions noted are these: human, washed erythrocyte (RBC) suspension, 40% hematocrit, pH 7.4, single drug, RT, dark, CTRL− 11.6%. The method, then:
Blood samples were collected from healthy human volunteers into Vacutainer tubes containing 3% sodium citrate (BD Biosciences, Warsaw, Poland). Whole blood was centrifuged at 1500 rpm (RCF = 214 g) for 10 min in a CompactStar CS4 centrifuge (VWR) at RT to separate erythrocytes, which were washed twice with PBS (pH 7.4) and centrifuged at 1500 rpm for 5 min at RT after each wash. Hematocrit was measured to adjust the final RBC concentration in PBS (pH 7.4) to 40%. The drugs were then dissolved in the RBC suspension at the final concentrations outlined in Figure 8. RBCs incubated in dH2O were used as a positive control (100% hemolysis), while RBCs in PBS were used as the negative control. A blank sample of PBS without RBCs or drugs provided a baseline for absorbance measurements. Experimental samples, along with positive, negative, and vehicle (0.5% DMSO) controls, were incubated for 4 h at RT in the dark. After incubation, the samples were centrifuged at 1500 rpm for 5 min at RT, and the supernatant was collected to measure hemoglobin release using Drabkin’s method. Absorbance was measured at 540 nm with a Jenway 6305 UV/Vis spectrophotometer (Bibby Scientific, Staffordshire, UK). This study was conducted in triplicate. The percentage of hemolysis was calculated by comparing the absorbance at 540 nm (OD540) of the test sample with that of the positive control using the following formula:(2) % Hemolysis=OD540Test−OD540(Blank)/OD540Total Lysis−OD540(Blank)×100%

For series [9], the system named is 4T1 breast cancer and B16F10 melanoma xenografts. Conditions: 4T1, B16F10 xenografts, MMTV-PyMT; cited from earlier work.
The test system of the next series is multiple cell lines. On the set-up: method as in Alkhalil et al. and others [10,11,16,26]. The conditions noted are these: range reported; ref Alkhalil et al. and others [10,11,16,26]; read-out: cytotoxicity (IC50 range over cell lines), literature; cited from earlier work.

Experimental for HMEC-1 cells: as §4, §2, §3
Experimental for HepG2 cells: as §4, §2, §3
Experimental for HuH7 cells: as §4, §2, §3
Experimental for U-87MG cells: as §4, §2, §3

As a reminder, the IC50 is the concentration that gives 50% inhibition. By solubility is commonly meant how much of the substance goes into solution per volume. The term logP denotes the decadic logarithm of the partition coefficient of the neutral form, usually between octanol and water. In the case of `CCC1=C(C)CN(C(=O)NCCc2ccc(S(=O)(=O)NC(=O)N[C@H]3CC[C@H](C)CC3)cc2)C1=O` [GLIM, Glimepiride], the “increase in CD8+ T cell infiltration” value in the series on CT26 colon cancer model is recorded as “about 100%”. Also, the “reduction of tumor mass” value in the series on CT26 colon cancer model is reported as 45%; in the series on MC38 melanoma model, 57%. Also, the IC50 with U-87MG cells was 186 µM; with HepG2 cells, 177 µM; with MCF-7 cells (calculated by the authors from the results of Faridi et al., read-out: IC50 value, MCF-7) it was 79.8 µM; with MCF-7 cells (read-out: IC50, MCF-7), 50 µM; in the series with A549 cells [5], 353 µM; in the series on HuH7 cells, 476 ± 7 µM. Further, the IC50 in the series with multiple cell lines is 89.4 to 426 µM. Besides, the “increase of DOXO levels” value in series [1] was “up to 2.3 times”. For the same molecule, in the series on HMEC-1 cells, the CC50 turned out to be 136 ± 5.1 µM. In addition, the “increase in DOXO level compared to DOXO monotherapy” value in the series on A549 cells [2] is given as 227%. Further, the IC50 at 72 h in series [3] is 135 to 473 µM. Moreover, in series [4], the solubility is given as 12.2 µM (≈ 5.99 µg/mL). For the same molecule, the logP in [6] is 3.81. The “increase in CD8+ T cell numbers” value in the series with MC38 model is given as less than 10%. In [7] (PBS pH 7.4, 37 °C, […] BSA, GLIM beyond 200 µM), the “d¯I of drug aggregates” value is on record as “approx. 353 nm”. Moreover, the diameter of aggregates result in [7] (absence of BSA, buffers and culture media) is on record as “over 300 nm”. Moreover, the “body weight compared to controls” value in the series on 4T1 tumors is given as “no significant change in body weight”. The “tumor size compared to untreated controls” value with 4T1 tumors is “no reduction in tumor size”. The same molecule had a hemolysis at 4 h in series [8] of 11.2 to 11.9%. In addition, in series [9], the “effect on tumor growth and metastasis” value was “no effect”.
